Laboratory results from publication PMC8179002, “Inhibitors of thiol-mediated uptake” (Chemical Science, 2020).

Tested on: pseudo-lentivectors that express the D614G mutant of the SARS-CoV-2 spike protein
Assay type: cell-based

| Structure (SMILES) | Concentration at onset of inhibition of pseudo-lentivector entry [µM] | IC50 (read-out: IC50, inhibition of pseudo-lentivector entry) [µM] |
| --- | --- | --- |
| CCN1C(=O)C2SSSSC1C(=O)N2CC(=O)O (centres unmarked) [compound 3] | 50 | – |
| O=S1(=O)C[C@H](O)[C@H](O)CS1 [compound 16] | – | ~50 |
